“Also recorded” adds a separate entry of the source.
Assays:
Ngb protein = Ngb protein expression in HN33 cells (Western blot); format: cell-based, mouse
Description: (§1) HN33 cells were cultured as described (Lee et al. (1990) J Neurosci. 10: 1779-1787; Shi et al. (1998) J Neurochem., 70:1035-1044; Jin et al. (2000) Proc Nati Acad Sci USA., 97:10242-10247). Cells were plated at 4×10^5 cells/well onto uncoated, 6-well plastic culture dishes in Dulbecco's modified Eagle's medium containing 10% (v/v) fetal bovine serum, 100 units/ml of penicillin and 100 μg/ml of streptomycin, and maintained at 37° C. in humidified 95% air/5% CO2. Cells were treated with hemin (typically 50 μM) or 8-Br-cGMP (10 μM) for up to 3 days, without daily replacement. To suppress sGC or PKG activity, cells were pretreated for 1 hour with inhibitors before adding other reagents.
Cells were washed twice in PBS, and whole-cell extracts were prepared by adding 10 volumes of 1× sample buffer containing 2% SDS, 100 mM dithiothreitol, 60 mM Tris (pH 6.8) and 10% glycerol, and boiled for 5 minutes. Protein concentrations were determined using Bradford Protein Assays (Bio-Rad, Hercules, Calif.); 30 μg of protein was analyzed by 12% or 15% SDS-PAGE and transferred to Immuno-Blot PVDF membranes (Bio-Rad). Membranes were probed with affinity-purified anti-Ngb antibody, which was produced by immunizing with a synthetic peptide corresponding to amino-acids 35-50 (NH2-CLSSPEFLDHIRKVML-COOH, (SEQ ID NO:11) of mouse Ngb (Sun et aL (2001 Proc Natl Acad Sci USA. 98:15306-15311),and the signal was detected with Boehringer Mannheim chemiluminescence blotting kits. Differences in protein expression on Western blots were quantified using a GS-710 calibrated imaging densitometer and Quantity One software (Bio-Rad).

HN33 cells = experiment: HN33 cell viability (MTT); format: cell-based, mouse
Description: Cell viability was assessed by measuring formazan produced by the reduction of 3-(4,5-dimethylthiazol-2-yl)-2,5-diphenyl tetrazolium bromide (MTT) in viable cells.3 Cells were incubated with 5 mg/ml of MTT (Sigma) at 37° C. for 2 hours. The medium was removed and cells were solubilized with dimethylsufoxide and transferred to 96-well plates. The formazan reduction product was detected by measuring absorbance at 570 nm in a Cytofluor Series 4000 multi-well plate-reader (PerSeptive Biosystems, Framingham, Mass.). Results were expressed as a percentage of control absorbance, measured in normoxic cultures, after subtracting background absorbance (measured in freeze-thawed cultures) from all values.

Ngb mRNA = Ngb mRNA expression in HN33 cells (RT-PCR, quantitative RT-PCR, Northern blot); format: cell-based, mouse
Description: as §1
RT-PCR and Northern blot analyses were carried out as described previously (Zhu and Zhang (1999) Biochem Biophys Res Commun., 258:87-93). Briefly, total RNA from treated and untreated cells was extracted using a RNeasy Mini Kit (QIAGEN Operon, Valencia, Calif.), and DNA-free total RNA (2 μg per sample) was reverse-transcribed into first-strand cDNA using the Reverse Transcription System and Oligo-dT12-18 (GIBCO-BRL, Rockville, Md.) (Id.). Sequences of the primers used for PCR amplification were: Ngb forward, 5′ CTCTGGAACATGGCACTGTC 3′ (nt 135-154, SEQ ID NO:7); Ngb reverse, 5′ GCACTGGCTCGTCTCTTACT 3′ (nt 547-528, SEQ ID NO:8); β-actin forward, 5′ CACAGGCATTGTGATGGACTC 3′ (nt 524-544, SEQ ID NO:9); β-actin reverse, 5′ GCTCAGGAGGAGCAATGATCT 3′ (nt 582-563, (SEQ ID NO:10). Primers were designed based on the published sequences of these genes and were synth esized by QIAGEN Operon. All PCR primer pairs gave rise to only one discrete band of the expected size. PCR reactions were carried out in a total volume of 25 μl containing 2 μl cDNA, 1×PCR buffer (Boehringer Mannheim, Mannheim, FRG), 200 μM dNTPs, 0.6 U Taq DNA polymerase (Boehringer Mannheim), and 0.2 μM primers. The optimal conditions for amplification (temperature and cycle number) were determined experimentally according to previously published procedures (Id.). Different ratios of Ngb to b-actin primer pairs were tested to ensure that Ngb and b-actin were amplified with similar efficiency, and a kinetic study was undertaken to establish the number of cycles sufficient to detect both Ngb and b-actin without reaching saturation for either. The parameters chosen for PCR amplification were 95° C. for 1 minute, 57° C. for 45 seconds, 72° C. for 1 minute for 25-30 cycles, and a final incubation at 72° C. for 10 minutes. PCR products were separated on 1.2% agarose gels, visualized by ethidium bromide staining, and quantified using a ChemiImage System (Alpha Innotech Corporation, San Leandro, Calif.).
For Northern blotting, 15 μg of total RNA from each sample was fractionated on 1% formaldehyde/agarose gels and transferred to Hybond-N nylon membranes (Amersham Pharmacia, Piscataway, N.J.). Filters were hybridized with probes for Ngb MRNA, and β-actin mRNA at 68° C. in hybridization buffer (Clontech, Palo Alto, Calif.). ^32P-radiolabeled DNA probes were synthesized using cDNA obtained from RT-PCR amplification.
Quantitative RT-PCR analysis was carried out as described previously.8 PCR reactions were carried out in a total volume of 25 μl containing 1 μI cDNA, 1×PCR buffer (Boehringer Mannheim), 200 μM dNTPs, 0.6 U Taq DNA polymerase (Boehringer Mannheim), two pairs of primers (one pair for the Ngb gene, another for the b-actin gene used as an internal control). The optimal conditions for amplification (the proportion between the two pairs of primers, temperatures, and cycle numbers) were determined experimentally according to previously established procedures.8 PCR products were separated on 1.2% agarose gels, visualized by ethidium bromide staining, and quantified using a ChemiImage System (Alpha Innotech Corporation).

[1] = system: vascular endothelial growth factor; details: aortic smooth muscle cells; cited from earlier work
cGMP = experiment: Intracellular cGMP content in HN33 cells (enzyme immunoassay); format: cell-based, mouse
Description: HN33 cells (4×10^4 cells in 100 μl) were plated on 96-well microtiter plates and treated with 50 μM hemin for 2, 8, 16, or 24 hours. Intracellular cGMP concentrations were measured in quadruplicate using a cGMP enzyme-immunoassay system (Amersham Pharmacia).

[2] = system: transient forebrain ischemia; details: rats, direct administration after transient forebrain ischemia; cited from earlier work
K562 cells = details: 50 μM hemin for 2-3 days; cited from earlier work

## hemin
Ngb protein; 50 μM hemin, 8-24 hours
  maximal increase in neuroglobin protein level: about 4 fold
Ngb protein; HN33 cells, 50 μM hemin
  persistence of Ngb protein induction: at least 3 days
  time at which induction of Ngb protein was evident: 2 h
Ngb protein; HN33 cells, 50 μM hemin for up to 3 days
  induction of Ngb protein: about 4 times basal levels of expression
HN33 cells; 100 μM hemin, 24 hours, HN33 cells
  difference in viability relative to control: significant (P<0.05) difference in viability
HN33 cells; 100 μM hemin, HN33 cells, MTT
  reduction of cell viability: ~15%
HN33 cells; hemin 0-50 μM for 24 h, or 50 μM for up to 3 days, MTT
  effect on HN33 cell viability: no effect on cell viability; also recorded: does not alter HN33 cell viability
Ngb mRNA; 50 μM hemin, 8-24 hours
  maximal increase in neuroglobin mRNA level: about 4 fold
Ngb mRNA; HN33 cells, 50 μM hemin for 16 hours
  Ngb mRNA levels (Northern blot): about 4 fold
Ngb mRNA; HN33 cells, hemin 24 h, maximal at 25-50 μM
  Maximal induction of Ngb mRNA expression (RT-PCR, normalized for β-actin): 4 fold
[1]
  effect on hypoxic induction of vascular endothelial growth factor: suppress
cGMP; 50 μM hemin
  cGMP levels by 24 hours: returned to near basal levels
cGMP; 50 μM hemin for 2 to 12 hours
  increase in cGMP levels: 8- to 15 fold
cGMP; hemin
  increase in cGMP levels (summary): > 10 fold
[2]
  neuroprotection: viable neurons in cerebral cortex and striatum: significantly increases the number of viable neurons
K562 cells
  cells producing a high level of hemoglobin: more than 50%
